{"source": "patent US20250319059A1", "about": "“Method for Treating Inflammatory Dysfunction of the Oral Mucosa” (VIVASOR, INC., priority 2022, published 2025)", "key": {"[1]": {"tested_on": "oral pain associated with Feline Chronic Gingivostomatitis (FCGS)", "assay": "Veterinarian Specific Outcome Measures (VSOM) in client-owned cats after oral topical RTX", "assay_type": "in vivo, cat", "conditions": "for treatment success rate (VSOM): Day 28 vs Day 0, success = reduction of at least 2 in total VSOM score", "from_the_text": "(§1) Characterize the required dose of RTX applied topically to the oral mucosa for the control of pain associated with Feline Chronic Gingivostomatitis (FCGS).\n• Cat less than 12 months of age. • Cat's body weight less than 2 kg. • Cat unlikely to survive a 30-min anesthesia or sedation procedure. • Cat was unlikely to survive 4 weeks due to health issues other than oral pain. • Cat was unavailable for the entire study duration or was felt to be unsuitable by the Investigator for another reason. • Cat was participating in another study • Cat was pregnant or lactating. • Cat underwent an oral surgical procedure within 30 days prior to screening. • Cat received cannabinoid agonists such as cannabidiol (CBD) or anandamide within 28 days of starting the study. • Cat received oral corticosteroids within 1 week of starting the study, or injectable corticosteroids within 6 weeks of starting the study, and/or required medication or supplements during the study that may have interfered with the objective of the study.\nTwenty-eight cats, each weighing over 2 kg and over 12 months of age, were enrolled in this study. There was no apparent trend in the ages of cats enrolled in the study. Enrolled cats were physically examined (their physical exam findings such as general appearance, ears/eyes/mouth, abdominal/gastrointestinal, musculoskeletal, neurological urogenital, lymphatic etc. . . . were recorded). Their weight and vital signs were recorded as well.\nVeterinarian Specific Outcome Measures (VSOM)—Qualitative assessment of common stomatitis signalment was carried out prior to the beginning of treatment and on day 7, 14, and 28 (at the conclusion of treatment). Cats were assessed for drooling, pain while eating, pain at manipulation and swelling of the oral tissue. Each clinical sign was graded from 1 to 5 (1=no problem; 5=Impossible).\nTreatment success was defined as “a reduction of at least 2 in total VSOM score at Day 28 compared to VSOM score at Day 0. A decrease of less than 2, no change, or an increase in total score was defined as treatment failure. Cats presenting an increase in any individual VSOM were considered a treatment failure regardless of total VSOM score. […] The results of each cohort were not compared statistically; only descriptive statistics were generated due to the small number of cats per cohort and lack of randomization. However, there was no evidence of a relationship between treatment success and dose.\n(§2) Each animal was randomly assigned to one of three groups. Ten cats (group 1) were treated with 6.25 μg RTX (total) diluted with sterile saline for a total volume of 2 mL. Nine cats (group 2) were treated with 12.5 μg RTX (total) diluted with sterile saline for a total volume of 2 mL. Nine cats (group 3) were treated with 25 μg RTX (total) diluted with sterile saline for a total volume of 2 mL.\nRTX solution was applied using a clean cotton tip applicator directly to the visible lesions and adjacent tissue. The non-target dosing areas (caudal mouth/pharynx) were protected using a 4×4 gauze. Any targeted area was dried with sterile gauze or using the air-water syringe system. The saturated applicator for was gently pressed along the targeted areas for 10 seconds. Two to three coats per lesion were applied using the same cotton tip applicator. The area was allowed to dry for a few seconds before moving to the next lesion by exposing the area to the air or by gently using the air-water syringe system. […]"}, "[2]": {"tested_on": "oral inflammation, Feline Chronic Gingivostomatitis (FCGS)", "assay": "Stomatitis Disease Activity Index (SDAI) in client-owned cats after oral topical RTX", "assay_type": "in vivo, cat", "conditions": "for treatment success (SDAI): success = 20% reduction in Day 28 SDAI vs Day 0 (post-hoc)", "protocol": "as §1\nStomatitis Disease Activity Index (SDAI)—This semi-quantitative assessment of oral inflammation was carried out prior to the beginning of treatment (day 0) and at day 28 (at the conclusion of treatment). Cats were assessed by owner for cat's interest in food and ability to eat, perceived comfort, grooming behavior, and activity levels. Each assessment was graded from 0 to 3 (0=no problem; 3=severe problems).\nThe average of the scores in Table 1 (total score divided by 4) were entered in the “owner evaluation” box on the initial SDAI (Stomatitis Disease Activity Index) tabulation sheet of Table 2. The rest of the questions on SDAI survey were completed by the veterinarian prior to the beginning of treatment (day 0) and at day 28 (at the conclusion of treatment). Each assessment was graded from 0 to 3 (0=no problem; 3=severe problems) as follows:\nTreatment success using the SDAI metric was defined post-hoc as a 20% reduction in the Day 28 SDAI compared to Day 0. Based on this definition, the percentage success was 100.0%, 80.0% and 44.4% for Cohorts 1, 2, and 3 respectively. The discrepancy in the success rate of Cohort 3 using the two metrics may be due to a higher baseline SDAI score.\nas §2\nRTX solution was applied using a clean cotton tip applicator directly to the visible lesions and adjacent tissue. The non-target dosing areas (caudal mouth/pharynx) were protected using a 4×4 gauze. Any targeted area was dried with sterile gauze or using the air-water syringe system. The saturated applicator for was gently pressed along the targeted areas for 10 seconds. Two to three coats per lesion were applied using the same cotton tip applicator. The area was allowed to dry for a few seconds before moving to the next lesion by exposing the area to the air or by gently using the air-water syringe system. When possible, and in absence of active bleeding due to manipulation, the RTX solution was allowed to drip into the gingival sulcus. If a target area was actively bleeding, an attempt to decrease or stop the bleeding was made before the RTX application."}, "TRPV1 receptor": {"target": "TRPV1 receptor (Homo sapiens, UniProt Q8NER1)", "sequence (Q8NER1 whole entry)": "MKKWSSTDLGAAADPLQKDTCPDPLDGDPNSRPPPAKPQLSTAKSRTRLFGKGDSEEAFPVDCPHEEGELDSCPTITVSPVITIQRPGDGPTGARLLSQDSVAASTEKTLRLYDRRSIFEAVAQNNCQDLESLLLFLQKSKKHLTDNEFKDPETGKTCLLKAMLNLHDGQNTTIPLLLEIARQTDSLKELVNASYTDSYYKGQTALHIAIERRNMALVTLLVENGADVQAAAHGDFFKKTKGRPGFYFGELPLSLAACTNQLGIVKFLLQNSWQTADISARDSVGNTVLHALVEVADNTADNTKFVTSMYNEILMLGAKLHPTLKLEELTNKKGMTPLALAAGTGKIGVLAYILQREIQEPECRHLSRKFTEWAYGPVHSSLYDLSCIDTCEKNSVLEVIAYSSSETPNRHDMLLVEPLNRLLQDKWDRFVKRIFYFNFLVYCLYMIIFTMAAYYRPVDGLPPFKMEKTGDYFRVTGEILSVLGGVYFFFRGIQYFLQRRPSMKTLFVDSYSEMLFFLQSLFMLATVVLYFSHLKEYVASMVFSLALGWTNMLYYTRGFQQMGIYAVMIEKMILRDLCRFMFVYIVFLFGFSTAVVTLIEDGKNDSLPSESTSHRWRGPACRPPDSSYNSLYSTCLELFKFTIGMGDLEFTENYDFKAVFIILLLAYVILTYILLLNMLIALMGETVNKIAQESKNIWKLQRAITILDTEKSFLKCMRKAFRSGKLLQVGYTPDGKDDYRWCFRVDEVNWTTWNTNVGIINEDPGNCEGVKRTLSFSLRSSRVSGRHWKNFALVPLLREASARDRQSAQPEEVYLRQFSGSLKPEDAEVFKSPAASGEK", "conditions": "cited from earlier work"}, "[3]": {"assay": "Preliminary safety study of oral topical application of RTX in cats with gingival inflammation", "assay_type": "in vivo, cat", "from_the_text": "This example provides safety data related to oral topical application of RTX. The primary objective of this study was to determine the initial tolerance of RTX when it is topically administered under anesthesia to the oral cavity of cats as a single treatment.\nFour cats were enrolled in this study. Each cat presented with mild to moderate gingival inflammation. The cats were allocated to two treatment groups according to severity of gingival inflammation. Group 1 cats, those with mild cases of gingivitis, were dosed on study Day 0 with a diluted RTX solution (12.5 μg/mL) applied topically to the maxillary and mandibular gingival tissue (buccal and palatal/lingual gingiva). Group 2 cats, those with current or recent historical moderate gingivitis, underwent the same treatment regimen on study Day 0 with the addition of application to the palatal and sublingual tissue.\nTotal dose of RTX tested per cat (diluted with sterile saline for a total volume of 2 mL) was: 17.5 μg (Group 1 cat), 23.75 μg (Group 1 cat), or 25 μg (Group 2 cats) RTX. One cat (pudding) received 17.5 μg RTX, one cat (Clank) received 23.75 μg RTX, and two cats (Forbes and Bianca) received 25 μg RTX. A single application of RTX was topically applied inside the mouth of each cat. The RTX was applied to the entire mouth.\nCats were anesthetized during treatment administration and for 30 minutes post-dose. Diphenhydramine (2 mg/kg, IM) was given as an anesthetic pre-treatment a minimum of 30 minutes prior to dosing. Induction was then performed using a combination of medetomidine 0.03 mg/kg, ketamine 5 mg/kg and butorphanol 0.2 mg/kg; dose volume 0.1 mL/kg, IM. Following application of a lidocaine hydrochloride spray to the larynx, intubation was performed and anesthesia was maintained using an isofluraneoxygen mixture. Standard anesthetic monitoring of vital signs was performed approximately every 5-10 minutes following dosing and precautions were taken to avoid low body temperature throughout the procedure. Cats remained under anesthesia for 30 minutes following dosing for additional monitoring. Upon removal from anesthetic, reversal drug atipamezole (0.2 mg/kg, IM) was administered.\nTo assess RTX tolerance, adverse event monitoring was performed using the following parameters: measurement of vital signs during anesthesia; physical examinations performed 0.25, 0.5, 1, 2, 3 and 4 hours following recovery from anesthesia (i.e. removal of endotracheal tube) as well as 1, 3 and 7 days post-dose in both the morning (AM) and afternoon (PM); twice daily clinical observations; daily food consumption measurement."}, "[4]": {"assay": "Safety variables of the FCGS effectiveness study (mortality, adverse events, clinical observations, body weight, ability to eat)", "assay_type": "in vivo, cat", "from_the_text": "Mortality—No mortality, whether by natural death or euthanasia, occurred on this study.\nAn adverse event (AE) is defined as any undesirable event, expected or not, occurring to a study animal during the study, regardless of whether the event was considered to have a causal relation to a study treatment. Adverse events were reported at scheduled times during the study from Day 0 to the last day of the study. Certain adverse events, defined as serious adverse events, were reported in an expedited fashion to allow for possible study protocol modifications. A Serious Adverse Event (SAE) is defined as any medical occurrence that results in hospitalization longer than 24 hours or results in significant disability or morbidity or is life threatening or results in death.\nSeverity, causality and outcome of adverse events were recorded. Causality is a determination of whether there was a reasonable possibility that the drug may have caused or contributed to an AE. This relationship was described as “unlikely”, “possible”, “probable”, “definite”, or “unknown.”\nOn Day 0, starting once the RTX was applied to all oral lesions (time 0), clinical observations were carried out by the veterinarian at 10, 30, 45, 60 (±5 minutes), as well as at 2 hours (±10 minutes) and 4 hours (±15 minutes), post-treatment administration. Cats were observed past 4 hours post-treatment administration, as necessary or until resolution of abnormal observations.\nCats were weighed on days 0, 7, 14, and 28. Normal body weights were reported for 24 of the 28 cats. Two cats (one in Cohort 1 and one in Cohort 3) had abnormal (low) weight on day 0, but normal weight by day 28.\nCats' ability to eat was assessed on days 0, 7, 14, and 28. The majority of the cats' ability to eat improved throughout the study. On day 28, no differences in ability to eat were detected between cohorts."}}}
{"smiles": "C=C(C)[C@]12C[C@@H](C)[C@@]34O[C@](Cc5ccccc5)(O[C@@H]1[C@@H]3C=C(COC(=O)Cc1ccc(O)c(OC)c1)C[C@]1(O)C(=O)C(C)=C[C@@H]41)O2", "note": "[RTX, resiniferatoxin]", "values": [{"measurement": "control of pain and inflammation", "setting": "[1]; 6.25 μg RTX, 28 days", "value": "effective in controlling pain and inflammation for 28 days"}, {"measurement": "treatment success rate (VSOM)", "setting": "[1]; Cohort 1, 6.25 μg RTX topical oral", "value": 90.0, "unit": "%"}, {"measurement": "treatment success rate (VSOM)", "setting": "[1]; Cohort 2, 12.5 μg RTX topical oral", "value": 80.0, "unit": "%"}, {"measurement": "treatment success (VSOM) on Day 14", "setting": "[1]; Cohort 2, 12.5 μg RTX, Day 14", "value": "all cats in Cohort 2 were a success"}, {"measurement": "treatment success rate (VSOM)", "setting": "[1]; Cohort 3, 25 μg RTX topical oral", "value": 88.9, "unit": "%"}, {"measurement": "treatment success (SDAI)", "setting": "[2]; Cohort 1, 6.25 μg RTX", "value": 100.0, "unit": "%"}, {"measurement": "treatment success (SDAI)", "setting": "[2]; Cohort 2, 12.5 μg RTX", "value": 80.0, "unit": "%"}, {"measurement": "treatment success (SDAI)", "setting": "[2]; Cohort 3, 25 μg RTX", "value": 44.4, "unit": "%"}, {"measurement": "percent improvement in SDAI", "setting": "[2]; day 0 to day 28", "value": "about 60%"}, {"measurement": "potency relative to capsaicin", "setting": "TRPV1 receptor; TRPV1 receptor agonist", "value": "1000-10,000 times"}, {"measurement": "Scoville scale", "setting": "TRPV1 receptor", "value": 16, "unit": "billion"}, {"measurement": "time to resolution of mild increases in severity of gingivitis", "setting": "[3]; 2 cats, without intervention", "value": "≤ 3", "unit": "days post-dose"}, {"measurement": "food consumption", "setting": "[3]; 8 days following RTX administration", "value": "returned to normal by day seven"}, {"measurement": "body weight", "setting": "[3]; day 8 vs before administration", "value": "by day 8 the weight was back to normal"}, {"measurement": "tolerability", "setting": "[3]; single topical oral application 17.5-25 μg RTX (12.5 μg/mL), 4 cats, followed 8 days", "value": "well tolerated with only mild and transient adverse events"}, {"measurement": "severity of adverse events", "setting": "[4]; 6.25-25 μg RTX topical oral", "value": "Most of the AE were graded as mild"}, {"measurement": "serious adverse events (SAE) during in-life", "setting": "[4]; 28 cats, 6.25-25 μg RTX topical oral", "value": "One"}, {"measurement": "mortality", "setting": "[4]; 28 cats, 6.25-25 μg RTX topical oral, 28 days", "value": "No mortality"}, {"measurement": "signs of systemic RTX exposure", "setting": "[4]; application on inflamed oral mucosa", "value": "did not exhibit signs of systemic RTX exposure"}, {"measurement": "ability to eat", "setting": "[4]; assessed days 0, 7, 14, 28, all cohorts", "value": "most of the cats in all cohorts that completed the study had an improvement in the ability to eat"}, {"measurement": "cats with normal body weights", "setting": "[4]; weighed days 0, 7, 14, 28", "value": "24 of the 28"}, {"measurement": "time to resolution of clinical signs (panting, hypersalivation, tachycardia, restlessness) post-treatment", "setting": "[4]; without medical intervention", "value": "≤ 3", "unit": "h"}]}
